Reference: patent US10894777B2, “TG2 inhibitor piperazine compounds and uses thereof” (UNIVERSITY OF OTTAWA, priority 2016, dated 2021)

Key:
Format in all cases: cell-based, human
[1] = system: TG2 fusion protein mCer-TG2-YFP; assay: Fluorescence lifetime imaging (FLIM) of mCer-TG2-YFP conformation, SCC-13 cells; conditions: NC9, VA4, VA5 0-20 μM 24 or 48 h; Cp4d 0-10 μM 48 h
Experimental: We monitored the impact of each inhibitor on intracellular TG2 structure using FLIM (Fluorescence Lifetime Imaging Microscopy). FLIM is a quantitative method of assessing fluorescence lifetime that measures energy transfer between donor and accept probes Fluorescence lifetime is measured in nanoseconds and a short lifetime correlates with close contact between probes (FIG. 29B). An advantage of this method is that fluorescent lifetimes are independent of probe concentration. In the present experiments, we expressed in cells a TG2 fusion protein in which the donor probe (mCER) is fused to the N-terminus and the acceptor probe (YFP) at the C-terminus (FIG. 29B). mCER and YFP comprise an ideal donor/acceptor pair; the donor probe is excited by laser illumination and energy transfer to the acceptor is monitored. The fluorescent lifetime is shorter when TG2 is in the closed conformation which brings mCER and YFP close together. SCC-13 cells were electroporated with empty vector, mCER-TG2 or mCER-TG2-YFP.
Fluorescence lifetime imaging. Fluorescence lifetime images were acquired using FLIM system (Alba 5 from ISS). […] Emission was observed through bandpass filter 480/35 nm (Chroma Technology) and detected by a photomultiplier H7422-40 (Hamamatsu). FLIM data were acquired using time-domain modality (SPC-830 TCSPC module from Becker and Hickl GmbH). […] To account for intensity heterogeneity within single intensity images, two to five consecutive scans were acquired and summed to build FLIM intensity image for lifetime analysis. […] FLIM data were analyzed using VistaVision Suite software (Vista v.213 from ISS). Lifetime images were generated by fitting data using single exponential intensity decay model. Intensity threshold for lifetime analysis was set of at least 3-fold above the intensity of dim cells and fitting procedure was performed for binned pixels at level of 3 (7×7 pixels). Lifetime distribution within image is represented with histogram showing pixel frequency of specific lifetime. The average lifetime values with standard deviations were calculated based on all processed pixels in lifetime image. FRET values were calculated according to the formula ET=1−(τDA/τD), where τD is the lifetime of donor (mCer-TG2) and τDA is the lifetime of donor-acceptor pair (mCer-TG2—YFP).

TS565 neurospheres = assay: Neurosphere growth, TS565 (proneural); conditions: 25 μM, 2 weeks
Text: Neurosphere cultures. TS543, TS565 and TS676, which represent the mesenchymal, proneural and classical glioblastoma subtypes respectively, based on transcriptomic and genomic analysis, were obtained from C. Brennan through the Monoclonal Antibody Core Facility at Memorial Sloan Kettering Cancer Center (Brennan, C. et al., PLoS One 4(11):e7752, 2009; Pyonteck, S. M. et al., Nature Med. 19(10):1264-72, 2013; Rohle, D. et al., Science 340(6132):626-30, 2013) and maintained in NeuroCult™ NS-A Proliferation Kit (Human) (Stem Cell Technologies) according to manufacturer's instructions. (NeuroCult Medium was supplemented with 20 ng/mL FGF, 50 ng/mL EGF and 0.0002% Heparin). To prevent neurosphere attachment to the bottom of the cell culture plates, Poly 2-hydroxyethyl methacrylate (PHM) was used. 6-well plates were coated with 1 mL/well of 1% PHM in ethanol (w/v). The plates were air dried in a sterile environment overnight and washed once with PBS and they were kept in the fridge in a sterile environment until use. For passaging, neurospheres were triturated according to instructions and 5,000 cells were seeded in each well in 2 mL medium. For treatments with TG2 inhibitors, cells were inoculated in medium containing 25 μM TG2 inhibitor or DMSO control. 200 μL of medium containing the 25 μM TG2 inhibitor or DMSO was added every other day. At the end of 2 weeks, 20-50 random microscopic images were captured for each group. The average volume of each sphere image was determined using Image J by a person blinded for neurosphere lines and treatments and volumes were calculated from the area data and used for comparison.

HaCaT cells = assay: Matrigel invasion assay, HaCaT cells; conditions: 20 μM, 24 h
GBM cells (U87 and T98G) = assay: EdU incorporation assay; conditions: 24 h
Experimental: EdU Incorporation Assay. After treatment of cells seeded in PolyD-Lys coated coverslips, half of the media was replaced with 10 μM EdU in 10% FBS MEM. After 90 min, cells were fixed with 4% PFA and permeabilized with 0.5% Triton X-100. Detection of EdU was performed as directed in the Click-iT EdU Alexa 647 kit (Life Technologies). 1:2000 Hoechst dilution was used to stain nuclei. Randomized pictures were taken for each group and a person blinded for the treatments counted the EdU and Hoechst positive cells.

T98G cells = assay: Agarose colony formation assay, T98G cells; conditions: 10 μM, 2 weeks
Experimental: Agarose colony formation assay. Agarose colony formation assay was conducted as described (Horman, S. R. et al., J. Biomol. Screen 18(10):1298-308, 2013; Zhang, K. et al., Tumour Biol. 35(3):2537-48, 2014) using 6-well plates and 5,000 cells in each well. 10 μM NC9 or DMSO was added to every layer at the start of the experiments. 2 mL liquid MEM containing 10 μM NC9 or DMSO was used to cover the agarose and it was changed 3 times a week. Colony growth was monitored every day and at the end of 10-15 days, the colonies were fixed with 4% paraformaldehyde, stained with 0.005% crystal violet, washed with PBS twice and 40 random pictures were taken from each treatment group. A person blinded for the treatments measured the area of the colonies using ImageJ program and the volumes were calculated from the area data under the assumption that the colonies are perfect spheres. The volumes were used to compare the effect of NC9 on colony growth.

| SMILES | fluorescence lifetime of mCer-TG2-YFP [1] | sphere growth, TS565 (TS565 neurospheres) | invasion through matrigel (HaCaT cells) | proliferation (EdU incorporation) (GBM cells (U87 and T98G)) | colony growth, T98G (T98G cells) |
| --- | --- | --- | --- | --- | --- |
| C=CC(=O)NCCCC[C@H](NC(=O)OCc1ccccc1)C(=O)NCCOCCOCCNS(=O)(=O)c1cccc2c(N(C)C)cccc12 [NC9] | markedly increased | suppressed sphere growth | suppressed | slowed down the proliferation | significantly reduced the growth |
| C=CC(=O)NCCCC[C@H](NC(=O)OCc1ccccc1)C(=O)N1CCN(S(=O)(=O)c2cccc3c(N(C)C)cccc23)CC1 [VA4, (S)-benzyl(6-acrylamido-1-(4-((5-(dimethylamino)naphthalen-1-yl)sulfonyl)piperazin-1-yl)-1-oxohexan-2-yl)carbamate] | markedly increased | suppressed sphere growth | suppressed | slowed down the proliferation | inhibited colony growth |
| C=CC(=O)NCCCC[C@H](NC(=O)OCc1ccccc1)C(=O)N1CCN(C(=O)c2cc3ccc(O)cc3oc2=O)CC1 [VA5, (S)-Benzyl(6-acrylamido-1-(4-(7-hydroxy-2-oxo-2H-chromene-3-carbonyl)piperazin-1-yl)-1-oxohexan-2-yl)carbamate] | markedly increased | only mildly suppressive | suppressed | no effect | did not suppress colony growth |
